Read-outs that look alike come from different tables or passages of the source.
Columns and labels:
[1] = cited from earlier work
[2] = Solubility in water / phosphate-buffered solution (pH 7.4)
[3] = propylene glycol as low-dose additive (less than 10%)
[4] = 9% propylene glycol; for Average area (percent of lisuride peak area relative to total peak area): no buffer
Description: An aqueous solution of lisuride hydrogen maleate which additionally contained 9% propylene glycol was investigated. The active ingredient concentration was adjusted to 2 mg per 3 mL. No buffer system was added. The remaining procedure included weighing 33.3 mg of the active ingredient into a scaled 50 mL flask, then adding the propylene glycol (4.5 g) and also adding 40 mL water. The flask was agitated for several minutes and then exposed to ultrasound until the active ingredient was completely dissolved. The flask was cooled to room temperature and topped off with double-distilled water up to the mark.
The solution was poured into transparent glass ampoules with a volume of 1 mL. These ampoules were sealed airtight and wrapped with aluminum foil to protect them from light. The ampoules were each stored at 6-8° C., 25° C. and 40° C.

[5] = 60° C., one week, dark
Description: The additives used were propylene glycol and Cremophor ELP in concentrations between 1.00% and 10.00%.
The solutions were prepared by analogy with the procedure used in examples 1 and 2.
The solutions were stored in the dark in glass containers at 60° C. for one week.

[6] = Description: Solutions of lisuride hydrogen maleate with a concentration of 2 mg active ingredient per 3 mL solution were investigated with regard to their temperature-dependent stability. These solutions were buffered using a citrate buffer system, so that the pH value of the pure medium was adjusted to 5.1, 4.5 and 3.5. Aqueous solutions of citric acid monohydrate and trisodium citrate dihydrate (0.53 mM each) were prepared.
Suitable mixing of these solutions yielded aqueous buffer systems with a pH of 4.5 and/or 3.5. After 33.3 mg lisuride hydrogen maleate had been weighed out in a scaled 50 mL flask, 40 mL of the corresponding buffer medium was added. The flasks were agitated for several minutes and then exposed to ultrasound for several minutes until the active ingredient was completely dissolved. The solutions were cooled to room temperature and topped off to the mark with buffer medium.
In the case of the more strongly basic medium (pH 5.1), a supply solution was prepared, containing citric acid monohydrate (0.38 mM) and trisodium citrate dihydrate (0.68 mM). This was used to dissolve the active ingredient. In principle, double-distilled water was used to prepare the solutions.
The resulting solutions were stored under three different conditions: under refrigeration at 6 to 8° C., at room temperature (25° C.) and at an elevated temperature of 40° C. The solutions were stored in sealed glass ampoules which were wrapped with aluminum foil for protection from light. After suitable intervals of time, samples were analyzed by means of a specific reverse phase HPLC method with UV detection (running time 30 min, retention time of lisuride ˜13 min).

CC(O)CO (centres unmarked) [propylene glycol, 1,2-propanediol (propylene glycol)]
estimated amount acceptable as a daily oral dose [1]: 25 mg/kg body weight

CCN(CC)C(=O)N[C@H]1C=C2c3cccc4[nH]cc(c34)C[C@H]2N(C)C1 [lisuride]
solubility (estimated) ([2]; free lisuride, calculated from solubility data of active ingredients/salts (Zimmermann 1983)): ~2.2 mg/100 mL

CCCN1C[C@@H](NC(=O)N(CC)CC)C[C@@H]2c3cccc4[nH]cc(c34)C[C@H]21 [proterguride]
solubility ([2]; free compound, phosphate-buffered solution (pH 7.4)): 2.6 mg/100 mL
solubility in water relative to lisuride ([2]; water): comparable to that of lisuride

CCN(CC)C(=O)N[C@H]1C=C2c3cccc4[nH]cc(c34)C[C@H]2N(C)C1.O=C(O)/C=C\C(=O)O [lisuride hydrogen maleate]
solubility of the active ingredient with propylene glycol [3]: improved solubility
discoloration of the solutions ([4]; elevated temperature): slight yellow discoloration was observed only after a storage time of 90 days
Average area (percent of lisuride peak area relative to total peak area) ([4]; 6-8° C., t 0 d): 99.80%
Average area (percent of lisuride peak area relative to total peak area) ([4]; 6-8° C., t 7 d): 99.79%
Average area (percent of lisuride peak area relative to total peak area) ([4]; 6-8° C., t 30 d): 99.67%
Average area (percent of lisuride peak area relative to total peak area) ([4]; 6-8° C., t 90 d): 99.52%
Average area (percent of lisuride peak area relative to total peak area) ([4]; 6-8° C., t 180 d): 99.36%
Average area (percent of lisuride peak area relative to total peak area) ([4]; 25° C., t 0 d): 99.80%
Average area (percent of lisuride peak area relative to total peak area) ([4]; 25° C., t 7 d): 99.79%
Average area (percent of lisuride peak area relative to total peak area) ([4]; 25° C., t 30 d): 99.46%
Average area (percent of lisuride peak area relative to total peak area) ([4]; 25° C., t 90 d): 99.15%
Average area (percent of lisuride peak area relative to total peak area) ([4]; 25° C., t 180 d): 98.35%
Average area (percent of lisuride peak area relative to total peak area) ([4]; 40° C., t 0 d): 99.80%
Average area (percent of lisuride peak area relative to total peak area) ([4]; 40° C., t 7 d): 99.33%
Average area (percent of lisuride peak area relative to total peak area) ([4]; 40° C., t 30 d): 97.59%
Average area (percent of lisuride peak area relative to total peak area) ([4]; 40° C., t 90 d): 94.06%
Average area (percent of lisuride peak area relative to total peak area) ([4]; 40° C., t 180 d): 89.76%
active ingredient decomposed ([4]; refrigeration, 180 days): approximately 0.4%
remaining active ingredient content in comparison with the initial concentration ([4]; room temperature, 180 days): 98.4%
active ingredient decomposed ([4]; storage at 40° C.): approximately 10%
stability compared with solutions without propylene glycol (Example 1) ([4]; 6-8° C., 25° C. and 40° C.): significantly more stable
degradation of the active ingredient ([5]; 1% Cremophor ELP): 14.3%
degradation of the active ingredient ([5]; 10% Cremophor ELP): 21.3%
remaining active ingredient content ([5]; propylene glycol): 92.5%
Average area (percent of lisuride peak area relative to total peak area) ([6]; citrate buffer pH 3.5, 6-8° C., t 0 d): 99.87%
Average area (percent of lisuride peak area relative to total peak area) ([6]; citrate buffer pH 3.5, 6-8° C., t 7 d): 99.92%
Average area (percent of lisuride peak area relative to total peak area) ([6]; citrate buffer pH 3.5, 6-8° C., t 30 d): 99.80%
Average area (percent of lisuride peak area relative to total peak area) ([6]; citrate buffer pH 3.5, 6-8° C., t 90 d): 99.57%
Average area (percent of lisuride peak area relative to total peak area) ([6]; citrate buffer pH 3.5, 6-8° C., t 180 d): 99.22%
Average area (percent of lisuride peak area relative to total peak area) ([6]; citrate buffer pH 3.5, 25° C., t 0 d): 99.87%
Average area (percent of lisuride peak area relative to total peak area) ([6]; citrate buffer pH 3.5, 25° C., t 7 d): 99.89%
Average area (percent of lisuride peak area relative to total peak area) ([6]; citrate buffer pH 3.5, 25° C., t 30 d): 99.37%
Average area (percent of lisuride peak area relative to total peak area) ([6]; citrate buffer pH 3.5, 25° C., t 90 d): 98.70%
Average area (percent of lisuride peak area relative to total peak area) ([6]; citrate buffer pH 3.5, 25° C., t 180 d): 94.14%
Average area (percent of lisuride peak area relative to total peak area) ([6]; citrate buffer pH 3.5, 40° C., t 0 d): 99.87%
Average area (percent of lisuride peak area relative to total peak area) ([6]; citrate buffer pH 3.5, 40° C., t 7 d): 98.89%
Average area (percent of lisuride peak area relative to total peak area) ([6]; citrate buffer pH 3.5, 40° C., t 30 d): 90.41%
Average area (percent of lisuride peak area relative to total peak area) ([6]; citrate buffer pH 3.5, 40° C., t 90 d): 73.37%
Average area (percent of lisuride peak area relative to total peak area) ([6]; citrate buffer pH 3.5, 40° C., t 180 d): 69.91%
Average area (percent of lisuride peak area relative to total peak area) ([6]; citrate buffer pH 4.5, 6-8° C., t 0 d): 99.79%
Average area (percent of lisuride peak area relative to total peak area) ([6]; citrate buffer pH 4.5, 6-8° C., t 7 d): 99.88%
Average area (percent of lisuride peak area relative to total peak area) ([6]; citrate buffer pH 4.5, 6-8° C., t 30 d): 99.73%
Average area (percent of lisuride peak area relative to total peak area) ([6]; citrate buffer pH 4.5, 6-8° C., t 90 d): 99.75%
Average area (percent of lisuride peak area relative to total peak area) ([6]; citrate buffer pH 4.5, 6-8° C., t 180 d): 99.11%
Average area (percent of lisuride peak area relative to total peak area) ([6]; citrate buffer pH 4.5, 25° C., t 0 d): 99.79%
Average area (percent of lisuride peak area relative to total peak area) ([6]; citrate buffer pH 4.5, 25° C., t 7 d): 99.84%
Average area (percent of lisuride peak area relative to total peak area) ([6]; citrate buffer pH 4.5, 25° C., t 30 d): 99.26%
Average area (percent of lisuride peak area relative to total peak area) ([6]; citrate buffer pH 4.5, 25° C., t 90 d): 98.14%
Average area (percent of lisuride peak area relative to total peak area) ([6]; citrate buffer pH 4.5, 25° C., t 180 d): 95.90%
Average area (percent of lisuride peak area relative to total peak area) ([6]; citrate buffer pH 4.5, 40° C., t 0 d): 99.79%
Average area (percent of lisuride peak area relative to total peak area) ([6]; citrate buffer pH 4.5, 40° C., t 7 d): 98.82%
Average area (percent of lisuride peak area relative to total peak area) ([6]; citrate buffer pH 4.5, 40° C., t 30 d): 94.96%
Average area (percent of lisuride peak area relative to total peak area) ([6]; citrate buffer pH 4.5, 40° C., t 90 d): 90.39%
Average area (percent of lisuride peak area relative to total peak area) ([6]; citrate buffer pH 4.5, 40° C., t 180 d): 87.71%
Average area (percent of lisuride peak area relative to total peak area) ([6]; citrate buffer pH 5.1, 6-8° C., t 0 d): 100.00%
Average area (percent of lisuride peak area relative to total peak area) ([6]; citrate buffer pH 5.1, 6-8° C., t 7 d): 99.90%
Average area (percent of lisuride peak area relative to total peak area) ([6]; citrate buffer pH 5.1, 6-8° C., t 30 d): 99.72%
Average area (percent of lisuride peak area relative to total peak area) ([6]; citrate buffer pH 5.1, 6-8° C., t 90 d): 99.59%
Average area (percent of lisuride peak area relative to total peak area) ([6]; citrate buffer pH 5.1, 6-8° C., t 180 d): 99.29%
Average area (percent of lisuride peak area relative to total peak area) ([6]; citrate buffer pH 5.1, 25° C., t 0 d): 100.00%
Average area (percent of lisuride peak area relative to total peak area) ([6]; citrate buffer pH 5.1, 25° C., t 7 d): 99.79%
Average area (percent of lisuride peak area relative to total peak area) ([6]; citrate buffer pH 5.1, 25° C., t 30 d): 99.36%
Average area (percent of lisuride peak area relative to total peak area) ([6]; citrate buffer pH 5.1, 25° C., t 90 d): 98.64%
Average area (percent of lisuride peak area relative to total peak area) ([6]; citrate buffer pH 5.1, 25° C., t 180 d): 95.45%
Average area (percent of lisuride peak area relative to total peak area) ([6]; citrate buffer pH 5.1, 40° C., t 0 d): 100.00%
Average area (percent of lisuride peak area relative to total peak area) ([6]; citrate buffer pH 5.1, 40° C., t 7 d): 98.86%
Average area (percent of lisuride peak area relative to total peak area) ([6]; citrate buffer pH 5.1, 40° C., t 30 d): 94.71%
Average area (percent of lisuride peak area relative to total peak area) ([6]; citrate buffer pH 5.1, 40° C., t 90 d): 90.99%
Average area (percent of lisuride peak area relative to total peak area) ([6]; citrate buffer pH 5.1, 40° C., t 180 d): 87.98%
decomposition of the active ingredient ([6]; citrate-buffered (pH 5.1, 4.5, 3.5), room temperature, within 180 days): 5%
decomposition of the active ingredient ([6]; citrate-buffered, storage at 40° C.): up to 30%
decomposition of the active ingredient ([6]; citrate-buffered, storage under refrigeration): approximately 0.7%
discoloration of the solutions ([6]; citrate-buffered, stored at 40° C.): significant yellow discoloration after only 30 days, turning brown after another 60 days

From patent US20090239894A1, “Stabilized aqueous solutions of ergoline compounds” (priority 2008, published 2009)
